According to patent publication US6521814B1, “Use of ligands for treatment of diseases responsive to retinoids” (Institut National de la Santa et de la Recherche Medicale, priority 1997, dated 2003):

Key:
RXRα−/−/RARγ−/− F9 cells = assay: Proliferation of F9 cells in monolayer culture (cell counting, [3H]thymidine incorporation, cell cycle FACS); type: cell-based, murine; details: 1 μM
RARγ−/− F9 cells = assay: Apoptosis of F9 cells (Hoechst 33258 staining, FACS); type: cell-based, murine; details: 1 μM, 6 d
Method: (§1) Apoptosis was analyzed by both Hoechst staining of nuclei and FACS® analysis, as previously described (Clifford, J., et al., EMBO J. 15:4142-4155 (1996)).

WT F9 cells = assay: as above; type: cell-based, murine; details: 1 μM
Method: as §1

RARα−/− F9 cells = assay: as above; type: cell-based, murine; details: 1 μM, 6 d
Method: as §1

D2R promoter = D2R promoter CAT reporter assay in transfected COS-1 cells, reporter alone; type: cell-based, rat; details: C1 reporter-transfected COS-1 cells, no receptor vector; 10^−7 M
Excerpt: Expression Vectors. The C1 reporter construct was obtained by subcloning the HindIII fragment spanning the 5 ′ promoter region of the D2R gene (positions −495 to +273), in the reporter plasmid pBLCAT3 (Luckow, B. & Schütz, G., Nucleic Acids Res. 15:5490 (1987)). The C2 reporter plasmid was constructed by subcloning the SmaI-XhoI fragment (positions −76 to +273) in the same position. The C3 and C4 reporters were generated by cloning a 29 bp synthetic oligonucleotide corresponding, respectively, to the natural rat D2R RARE sequence and the mutated one into pBLCAT2 (Luckow, B. & Schütz, G., Nucleic Acids Res. 15:5490 (1987)). The polylinker in pBLCAT2 is located upstream of the herpes simplex virus 1 (HSV1) thymidine kinase (TK) promoter, from position −105 to +51. To measure transfection efficiency the plasmid pCH110 carrying the β-galactosidase gene (Pharmacia) was used. Mouse […], as well as mouse RXRα, β and γ expression vectors were derived from the parental pSG5 vector (Green, S., et al., Nucleic Acids Res. 16:369 (1988)).
COS-1 cells were used for transient transfection assays. Cells were grown in Dulbecco's modified Eagle's medium supplemented with 5% fetal calf serum.
Several hours before transfection, the medium was replaced with fresh medium containing 5% charcoal-treated FCS. […]

RARα = biological target: T1, RARα (Mus musculus, UniProt P11416); assay: D2R promoter CAT reporter assay in COS-1 cells cotransfected with RARα expression vector; type: cell-based; details: 0.1 μM
T1 construct: expressed in transfected cells; host or cells: COS-1
T1 sequence (P11416 1-462): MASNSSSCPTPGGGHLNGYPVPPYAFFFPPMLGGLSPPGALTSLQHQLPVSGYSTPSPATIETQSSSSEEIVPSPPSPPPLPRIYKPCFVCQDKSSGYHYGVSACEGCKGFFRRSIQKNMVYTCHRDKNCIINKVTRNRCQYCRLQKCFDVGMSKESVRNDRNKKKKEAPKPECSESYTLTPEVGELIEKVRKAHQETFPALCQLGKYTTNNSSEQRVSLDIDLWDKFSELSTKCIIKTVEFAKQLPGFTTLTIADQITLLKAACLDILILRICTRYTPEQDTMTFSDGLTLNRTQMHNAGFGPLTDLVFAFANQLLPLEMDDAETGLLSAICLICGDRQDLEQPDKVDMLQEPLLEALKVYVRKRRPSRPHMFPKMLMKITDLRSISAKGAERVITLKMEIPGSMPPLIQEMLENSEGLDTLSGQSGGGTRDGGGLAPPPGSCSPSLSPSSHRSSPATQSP
Excerpt: The C1 reporter construct was obtained by subcloning the HindIII fragment spanning the 5 ′ promoter region of the D2R gene (positions −495 to +273), in the reporter plasmid pBLCAT3 (Luckow, B. & Schütz, G., Nucleic Acids Res. 15:5490 (1987)). The C2 reporter plasmid was constructed by subcloning the SmaI-XhoI fragment (positions −76 to +273) in the same position. The C3 and C4 reporters were generated by cloning a 29 bp synthetic oligonucleotide corresponding, respectively, to the natural rat D2R RARE sequence and the mutated one into pBLCAT2 (Luckow, B. & Schütz, G., Nucleic Acids Res. 15:5490 (1987)). The polylinker in pBLCAT2 is located upstream of the herpes simplex virus 1 (HSV1) thymidine kinase (TK) promoter, from position −105 to +51. To measure transfection efficiency the plasmid pCH110 carrying the β-galactosidase gene (Pharmacia) was used. Mouse RARβ, β and γ, as well as mouse RXRα, β and γ expression vectors were derived from the parental pSG5 vector (Green, S., et al., Nucleic Acids Res. 16:369 (1988)).

CC1=C(/C=C/C(C)=C/C=C/C(C)=C/C(=O)O)C(C)(C)CCC1 [tRA, all-trans retinoic acid]
inhibition of [3H]thymidine incorporation (RXRα−/−/RARγ−/− F9 cells; 4 d): no inhibition
cell cycle profile (FACS) (RXRα−/−/RARγ−/− F9 cells; 5 d): not significantly affected
effect on number of cells (cell counting) (RXRα−/−/RARγ−/− F9 cells; 6 d): did not reduce, but slightly increased
proportion of apoptotic nuclei and subcellular fragments (Hoechst 33258) (RARγ−/− F9 cells): + (>1-10%)
proportion of apoptotic nuclei and subcellular fragments (Hoechst 33258) (WT F9 cells; 6 d): ++ (>10%)
sub-2N size DNA-containing particles ('apoptotic bodies'), FACS (WT F9 cells; after 5 d): appeared
proportion of apoptotic nuclei and subcellular fragments (Hoechst 33258) (RARα−/− F9 cells): ++ (>10%)
changes in CAT activity (D2R promoter): no significant changes
increase of CAT activity (RARα; C1 reporter + RARα expression vector): 16 fold
increase of CAT activity (RARα; C2 reporter + RARα expression vector): 35 fold
